Source: patent US6362369B1, “Phthalic acid diamide derivatives fluorine-containing aniline compounds as starting material, agricultural and horticultural insecticides, and a method for application of the insecticides” (Nihon Nohyaku Co., Ltd., priority 1997, dated 2002)

What was measured:
Format in all cases: in vivo
[1] = tested on: rice leafroller (Cnaphalocrocis medinalis); test: Insecticidal effect on rice leafroller (Test Example 3); conditions: rice leafroller third-instar larvae; rice lamina immersed, 500 ppm; four days after inoculation; 25° C., humidity 70%
Method in brief: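 Groups of 10 third-instar larvae, in triplicate, are placed on air-dried lamina resting on wet filter paper. Incubation runs four days at 25° C with 70% humidity before survivors and dead are tallied.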

[2] = tested on: common cutworm (Spodoptera Litura); test: Insecticidal effect on common cutworm (Test Example 2); conditions: common cutworm second-instar larvae; cabbage leaf immersed, 500 ppm; eight days after inoculation; 25° C.
Method in brief: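 2nd-instar larvae on air-dried treatment, closed dish, 25° C; dead/alive counted at day 8. Mortality calculated, graded by criterion. 3 × 10 insects.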

[3] = tested on: diamondback moth (Plutella xylostella); test: Insecticidal effect on diamondback moth (Test Example 1); conditions: diamondback moth; mortality judged by criterion of Test Example 1
Method in brief: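 Read-out was mortality from hatched-insect counts taken 6 days after the egg-bearing cabbage seedling was immersed, graded by set criteria. Seedlings were air-dried and kept at 25° C after treatment. Groups of 10 insects, in triplicate.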

CC(C)NC(=O)c1c(I)cccc1C(=O)Nc1ccc2oc(C(F)(F)C(F)(F)F)nc2c1 [compound 1142]
Insecticidal effect, Test Example 3 [1]: A (100)
Insecticidal effect, Test Example 2 [2]: A (100)
Insecticidal effect, Test Example 1 [3]: A (100)

CC(C)(C)NC(=O)c1c(I)cccc1C(=O)Nc1ccc2oc(C(F)(F)C(F)(F)F)nc2c1 [compound 1143]
Insecticidal effect, Test Example 3 [1]: A (100)
Insecticidal effect, Test Example 2 [2]: C (89-80)
Insecticidal effect, Test Example 1 [3]: A (100)

CCN(CC)C(=O)c1c(I)cccc1C(=O)Nc1ccc(C(F)(F)F)cc1C [compound 1144]
Insecticidal effect, Test Example 3 [1]: A (100)
Insecticidal effect, Test Example 2 [2]: A (100)
Insecticidal effect, Test Example 1 [3]: A (100)

CC(C)NC(=O)c1c(C(=O)Nc2ccc3c(c2)OC(F)C(F)(F)O3)cccc1[N+](=O)[O-] (stereo not drawn) [compound 1146]
Insecticidal effect, Test Example 3 [1]: A (100)
Insecticidal effect, Test Example 2 [2]: C (89-80)
Insecticidal effect, Test Example 1 [3]: A (100)

CC(C)NC(=O)c1c(Cl)cccc1C(=O)Nc1ccc2c(c1)OC(F)C(F)(F)O2 (stereo not drawn) [compound 1147]
Insecticidal effect, Test Example 3 [1]: A (100)
Insecticidal effect, Test Example 2 [2]: A (100)
Insecticidal effect, Test Example 1 [3]: A (100)

CC(C)NC(=O)c1c(I)cccc1C(=O)Nc1ccc2c(c1)OC(F)C(F)(F)O2 (stereo not drawn) [compound 1148]
Insecticidal effect, Test Example 3 [1]: A (100)
Insecticidal effect, Test Example 2 [2]: A (100)
Insecticidal effect, Test Example 1 [3]: A (100)

CC(C)(C)NC(=O)c1c(I)cccc1C(=O)Nc1ccc2c(c1)OC(F)C(F)(F)O2 (stereo not drawn) [compound 1150]
Insecticidal effect, Test Example 3 [1]: A (100)
Insecticidal effect, Test Example 2 [2]: A (100)
Insecticidal effect, Test Example 1 [3]: A (100)

CCN(CC)C(=O)c1c(I)cccc1C(=O)Nc1ccc2c(c1)OC(F)C(F)(F)O2 (stereo not drawn) [compound 1151]
Insecticidal effect, Test Example 3 [1]: A (100)
Insecticidal effect, Test Example 2 [2]: A (100)
Insecticidal effect, Test Example 1 [3]: A (100)

CCC(C)(C)NC(=O)c1c(F)cccc1C(=O)Nc1ccc(C(F)(F)C(F)(F)F)cc1C [compound 1152]
Insecticidal effect, Test Example 3 [1]: A (100)
Insecticidal effect, Test Example 2 [2]: A (100)
Insecticidal effect, Test Example 1 [3]: A (100)

CCC(C)(C)NC(=O)c1c(F)cccc1C(=O)Nc1ccc(C(F)(C(F)(F)F)C(F)(F)F)cc1C [compound 1153]
Insecticidal effect, Test Example 3 [1]: A (100)
Insecticidal effect, Test Example 2 [2]: A (100)
Insecticidal effect, Test Example 1 [3]: A (100)

CCC(C)(C)NC(=O)c1c(F)cccc1C(=O)Nc1ccc(OC(F)(F)F)cc1C [compound 1154]
Insecticidal effect, Test Example 3 [1]: A (100)
Insecticidal effect, Test Example 2 [2]: C (89-80)
Insecticidal effect, Test Example 1 [3]: A (100)

CCCN(CCC)C(=O)c1c(I)cccc1C(=O)Nc1ccc(OC(F)(F)F)cc1C [compound 1156]
Insecticidal effect, Test Example 3 [1]: A (100)
Insecticidal effect, Test Example 2 [2]: A (100)
Insecticidal effect, Test Example 1 [3]: A (100)

CCCN(CCC)C(=O)c1c(I)cccc1C(=O)Nc1ccc(OC(F)(F)C(F)F)cc1C [compound 1158]
Insecticidal effect, Test Example 3 [1]: A (100)
Insecticidal effect, Test Example 2 [2]: D (79-50)
Insecticidal effect, Test Example 1 [3]: A (100)

CCN(C(=O)c1c(I)cccc1C(=O)Nc1ccc(C(F)(F)C(F)(F)F)cc1C)C(C)C [compound 1159]
Insecticidal effect, Test Example 3 [1]: A (100)
Insecticidal effect, Test Example 2 [2]: A (100)
Insecticidal effect, Test Example 1 [3]: A (100)

CCN(C(=O)c1c(I)cccc1C(=O)Nc1ccc(OC(F)(F)F)cc1)C(C)C [compound 1160]
Insecticidal effect, Test Example 3 [1]: A (100)
Insecticidal effect, Test Example 2 [2]: A (100)
Insecticidal effect, Test Example 1 [3]: A (100)

CC(C)NC(=O)c1c(I)cccc1C(=O)Nc1ccc2c(c1)OC(F)(F)C(F)O2 (stereo not drawn) [compound 1161]
Insecticidal effect, Test Example 3 [1]: A (100)
Insecticidal effect, Test Example 2 [2]: D (79-50)
Insecticidal effect, Test Example 1 [3]: A (100)

CC(C)NC(=O)c1c(C(=O)Nc2ccc3c(c2)OC(F)(F)C(F)O3)cccc1[N+](=O)[O-] (stereo not drawn) [compound 1162]
Insecticidal effect, Test Example 3 [1]: A (100)
Insecticidal effect, Test Example 2 [2]: A (100)
Insecticidal effect, Test Example 1 [3]: A (100)

CC(C)NC(=O)c1c(Cl)cccc1C(=O)Nc1ccc2c(c1)OC(F)(F)C(F)O2 (stereo not drawn) [compound 1163]
Insecticidal effect, Test Example 3 [1]: A (100)
Insecticidal effect, Test Example 2 [2]: A (100)
Insecticidal effect, Test Example 1 [3]: A (100)

CC(C)NC(=O)c1c(I)cccc1C(=O)Nc1ccc2c(c1)OC(F)(F)C(F)O2 (stereo not drawn) [compound 1164]
Insecticidal effect, Test Example 3 [1]: A (100)
Insecticidal effect, Test Example 2 [2]: A (100)
Insecticidal effect, Test Example 1 [3]: A (100)

CC(C)(C)NC(=O)c1ccccc1C(=O)Nc1ccc2c(c1)OC(F)(F)C(F)O2 (stereo not drawn) [compound 1165]
Insecticidal effect, Test Example 3 [1]: A (100)
Insecticidal effect, Test Example 2 [2]: A (100)
Insecticidal effect, Test Example 1 [3]: A (100)

CCN(CC)C(=O)c1c(I)cccc1C(=O)Nc1ccc2c(c1)OC(F)(F)C(F)O2 (stereo not drawn) [compound 1167]
Insecticidal effect, Test Example 3 [1]: A (100)
Insecticidal effect, Test Example 2 [2]: A (100)
Insecticidal effect, Test Example 1 [3]: A (100)

Cc1cc([S+]([O-])C(F)(F)F)ccc1NC(=O)c1cccc(I)c1C(=O)NC(C)C (stereo not drawn) [compound 1168]
Insecticidal effect, Test Example 3 [1]: A (100)
Insecticidal effect, Test Example 2 [2]: A (100)
Insecticidal effect, Test Example 1 [3]: A (100)

Cc1cc([S+]([O-])C(F)(F)F)ccc1NC(=O)c1cccc(I)c1C(=O)NC(C)(C)C (stereo not drawn) [compound 1169]
Insecticidal effect, Test Example 3 [1]: A (100)
Insecticidal effect, Test Example 2 [2]: A (100)
Insecticidal effect, Test Example 1 [3]: A (100)

CC(C)NC(=O)c1c(I)cccc1C(=O)Nc1ccc2oc(-c3ccc(C(F)(F)F)cc3)nc2c1 [compound 1173]
Insecticidal effect, Test Example 3 [1]: A (100)
Insecticidal effect, Test Example 2 [2]: A (100)
Insecticidal effect, Test Example 1 [3]: A (100)

CC(C)(C)NC(=O)c1c(I)cccc1C(=O)Nc1ccc2oc(-c3ccc(C(F)(F)F)cc3)nc2c1 [compound 1174]
Insecticidal effect, Test Example 3 [1]: A (100)
Insecticidal effect, Test Example 2 [2]: A (100)
Insecticidal effect, Test Example 1 [3]: A (100)

CCN(CC)C(=O)c1c(I)cccc1C(=O)Nc1ccc(OC(F)(F)F)cc1F [compound 1190]
Insecticidal effect, Test Example 3 [1]: A (100)
Insecticidal effect, Test Example 2 [2]: A (100)
Insecticidal effect, Test Example 1 [3]: A (100)

Cc1cc(C(F)(F)C(F)(F)F)ccc1NC(=O)c1cccc(OC(F)(F)F)c1C(=O)NC(C)C [compound 1191]
Insecticidal effect, Test Example 3 [1]: A (100)
Insecticidal effect, Test Example 2 [2]: A (100)
Insecticidal effect, Test Example 1 [3]: A (100)

Cc1cc(C(F)(F)C(F)(F)F)ccc1NC(=O)c1cccc(OC(F)(F)F)c1C(=O)NC(C)(C)C [compound 1192]
Insecticidal effect, Test Example 3 [1]: A (100)
Insecticidal effect, Test Example 2 [2]: A (100)
Insecticidal effect, Test Example 1 [3]: A (100)

CCN(CC)C(=O)c1c(OC(F)(F)F)cccc1C(=O)Nc1ccc(C(F)(F)C(F)(F)F)cc1C [compound 1193]
Insecticidal effect, Test Example 3 [1]: A (100)
Insecticidal effect, Test Example 2 [2]: A (100)
Insecticidal effect, Test Example 1 [3]: A (100)

Cc1cc(C(F)(F)C(F)(F)F)ccc1NC(=O)c1ccc(I)cc1C(=O)NC(C)C [compound 1202]
Insecticidal effect, Test Example 3 [1]: A (100)
Insecticidal effect, Test Example 2 [2]: A (100)
Insecticidal effect, Test Example 1 [3]: A (100)

Cc1cc(C(F)(F)C(F)(F)F)ccc1NC(=O)c1cc(I)ccc1C(=O)NC(C)C [compound 1203]
Insecticidal effect, Test Example 3 [1]: A (100)
Insecticidal effect, Test Example 2 [2]: D (79-50)
Insecticidal effect, Test Example 1 [3]: A (100)
